Experimental data published in ChEMBL document CHEMBL5715956, “Selective Targeting of Bromodomains of the Bromodomain-PHD Fingers Family Impairs Osteoclast Differentiation” (ACS Chem Biol, 2017).

Experiments:
[1] = biological target: T1, Peregrin (Homo sapiens) (UniProt P55201); test: Binding affinity to […] (unknown origin) assessed as change in gibbs free energy at 17 uM by Isothermal titration calorimetry
T1 sequence (whole entry): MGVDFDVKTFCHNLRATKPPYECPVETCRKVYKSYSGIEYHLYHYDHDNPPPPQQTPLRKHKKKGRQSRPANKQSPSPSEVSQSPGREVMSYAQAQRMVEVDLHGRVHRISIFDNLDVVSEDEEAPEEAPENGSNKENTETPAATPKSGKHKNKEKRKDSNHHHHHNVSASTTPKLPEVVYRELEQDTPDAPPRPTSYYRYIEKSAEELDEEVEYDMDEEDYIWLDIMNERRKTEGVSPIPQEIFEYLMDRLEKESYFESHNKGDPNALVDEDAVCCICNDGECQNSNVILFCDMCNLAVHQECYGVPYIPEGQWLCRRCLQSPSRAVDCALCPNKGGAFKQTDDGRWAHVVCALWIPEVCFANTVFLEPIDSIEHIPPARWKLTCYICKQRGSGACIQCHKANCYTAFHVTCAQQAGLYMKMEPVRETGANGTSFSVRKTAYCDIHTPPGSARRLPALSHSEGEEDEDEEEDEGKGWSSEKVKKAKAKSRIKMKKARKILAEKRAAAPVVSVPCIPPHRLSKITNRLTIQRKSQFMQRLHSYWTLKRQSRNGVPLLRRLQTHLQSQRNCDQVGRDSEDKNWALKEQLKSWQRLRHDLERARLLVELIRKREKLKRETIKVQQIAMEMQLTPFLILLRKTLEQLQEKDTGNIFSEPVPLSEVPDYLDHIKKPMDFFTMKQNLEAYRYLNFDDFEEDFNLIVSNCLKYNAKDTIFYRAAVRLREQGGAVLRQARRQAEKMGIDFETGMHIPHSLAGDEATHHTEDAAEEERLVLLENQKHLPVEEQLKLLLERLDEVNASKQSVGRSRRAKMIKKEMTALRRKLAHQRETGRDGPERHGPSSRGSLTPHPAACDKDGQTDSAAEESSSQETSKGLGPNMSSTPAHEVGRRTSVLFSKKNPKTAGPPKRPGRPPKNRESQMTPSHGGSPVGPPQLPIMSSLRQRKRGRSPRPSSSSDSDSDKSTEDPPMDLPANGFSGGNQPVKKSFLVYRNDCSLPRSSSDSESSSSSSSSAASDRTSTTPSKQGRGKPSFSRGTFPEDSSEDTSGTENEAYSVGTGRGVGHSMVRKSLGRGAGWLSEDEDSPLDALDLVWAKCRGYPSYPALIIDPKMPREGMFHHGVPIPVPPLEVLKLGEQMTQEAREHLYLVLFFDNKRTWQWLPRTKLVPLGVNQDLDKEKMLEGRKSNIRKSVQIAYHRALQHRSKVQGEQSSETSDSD

[2] = biological target: T1, Peregrin (Homo sapiens); conditions: dose 10.0 µM
[3] = biological target: T2, Bromodomain-containing protein 1 (Homo sapiens) (UniProt O95696); test: Binding affinity to BRPF2 (unknown origin) assessed as change in entropy at 12 uM by Isothermal titration calorimetry
T2 sequence (whole entry): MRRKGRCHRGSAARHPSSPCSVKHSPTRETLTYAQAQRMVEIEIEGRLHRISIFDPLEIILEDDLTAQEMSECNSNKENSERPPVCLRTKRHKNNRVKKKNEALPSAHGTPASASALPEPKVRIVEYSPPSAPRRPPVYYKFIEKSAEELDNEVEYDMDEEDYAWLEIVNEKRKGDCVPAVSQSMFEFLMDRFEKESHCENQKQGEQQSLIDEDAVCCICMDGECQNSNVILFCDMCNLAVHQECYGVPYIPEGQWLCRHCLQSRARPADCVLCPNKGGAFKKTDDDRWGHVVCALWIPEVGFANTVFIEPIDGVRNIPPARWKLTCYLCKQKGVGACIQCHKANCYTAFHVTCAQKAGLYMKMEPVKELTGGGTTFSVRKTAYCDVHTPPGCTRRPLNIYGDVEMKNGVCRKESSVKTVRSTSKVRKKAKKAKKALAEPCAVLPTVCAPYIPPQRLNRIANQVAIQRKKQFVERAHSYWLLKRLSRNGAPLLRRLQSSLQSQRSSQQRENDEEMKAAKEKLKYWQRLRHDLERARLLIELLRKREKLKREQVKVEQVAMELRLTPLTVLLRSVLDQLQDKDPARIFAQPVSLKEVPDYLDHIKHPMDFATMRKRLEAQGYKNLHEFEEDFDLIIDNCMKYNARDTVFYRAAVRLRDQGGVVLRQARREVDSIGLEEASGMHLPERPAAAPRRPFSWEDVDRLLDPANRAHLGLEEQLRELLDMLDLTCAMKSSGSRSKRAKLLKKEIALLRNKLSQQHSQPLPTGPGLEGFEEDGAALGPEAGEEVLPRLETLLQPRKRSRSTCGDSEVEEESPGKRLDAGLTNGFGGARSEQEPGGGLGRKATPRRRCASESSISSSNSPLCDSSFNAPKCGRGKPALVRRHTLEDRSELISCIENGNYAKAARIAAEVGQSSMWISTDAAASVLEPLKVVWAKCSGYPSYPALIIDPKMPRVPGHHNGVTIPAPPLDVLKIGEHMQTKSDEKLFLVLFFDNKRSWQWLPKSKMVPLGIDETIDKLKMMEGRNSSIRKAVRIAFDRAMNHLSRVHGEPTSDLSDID

[4] = biological target: Protein polybromo-1 (Homo sapiens) (UniProt Q86U86); conditions: dose 10.0 µM
Chain of Protein polybromo-1 (Homo sapiens) (Q86U86 whole entry): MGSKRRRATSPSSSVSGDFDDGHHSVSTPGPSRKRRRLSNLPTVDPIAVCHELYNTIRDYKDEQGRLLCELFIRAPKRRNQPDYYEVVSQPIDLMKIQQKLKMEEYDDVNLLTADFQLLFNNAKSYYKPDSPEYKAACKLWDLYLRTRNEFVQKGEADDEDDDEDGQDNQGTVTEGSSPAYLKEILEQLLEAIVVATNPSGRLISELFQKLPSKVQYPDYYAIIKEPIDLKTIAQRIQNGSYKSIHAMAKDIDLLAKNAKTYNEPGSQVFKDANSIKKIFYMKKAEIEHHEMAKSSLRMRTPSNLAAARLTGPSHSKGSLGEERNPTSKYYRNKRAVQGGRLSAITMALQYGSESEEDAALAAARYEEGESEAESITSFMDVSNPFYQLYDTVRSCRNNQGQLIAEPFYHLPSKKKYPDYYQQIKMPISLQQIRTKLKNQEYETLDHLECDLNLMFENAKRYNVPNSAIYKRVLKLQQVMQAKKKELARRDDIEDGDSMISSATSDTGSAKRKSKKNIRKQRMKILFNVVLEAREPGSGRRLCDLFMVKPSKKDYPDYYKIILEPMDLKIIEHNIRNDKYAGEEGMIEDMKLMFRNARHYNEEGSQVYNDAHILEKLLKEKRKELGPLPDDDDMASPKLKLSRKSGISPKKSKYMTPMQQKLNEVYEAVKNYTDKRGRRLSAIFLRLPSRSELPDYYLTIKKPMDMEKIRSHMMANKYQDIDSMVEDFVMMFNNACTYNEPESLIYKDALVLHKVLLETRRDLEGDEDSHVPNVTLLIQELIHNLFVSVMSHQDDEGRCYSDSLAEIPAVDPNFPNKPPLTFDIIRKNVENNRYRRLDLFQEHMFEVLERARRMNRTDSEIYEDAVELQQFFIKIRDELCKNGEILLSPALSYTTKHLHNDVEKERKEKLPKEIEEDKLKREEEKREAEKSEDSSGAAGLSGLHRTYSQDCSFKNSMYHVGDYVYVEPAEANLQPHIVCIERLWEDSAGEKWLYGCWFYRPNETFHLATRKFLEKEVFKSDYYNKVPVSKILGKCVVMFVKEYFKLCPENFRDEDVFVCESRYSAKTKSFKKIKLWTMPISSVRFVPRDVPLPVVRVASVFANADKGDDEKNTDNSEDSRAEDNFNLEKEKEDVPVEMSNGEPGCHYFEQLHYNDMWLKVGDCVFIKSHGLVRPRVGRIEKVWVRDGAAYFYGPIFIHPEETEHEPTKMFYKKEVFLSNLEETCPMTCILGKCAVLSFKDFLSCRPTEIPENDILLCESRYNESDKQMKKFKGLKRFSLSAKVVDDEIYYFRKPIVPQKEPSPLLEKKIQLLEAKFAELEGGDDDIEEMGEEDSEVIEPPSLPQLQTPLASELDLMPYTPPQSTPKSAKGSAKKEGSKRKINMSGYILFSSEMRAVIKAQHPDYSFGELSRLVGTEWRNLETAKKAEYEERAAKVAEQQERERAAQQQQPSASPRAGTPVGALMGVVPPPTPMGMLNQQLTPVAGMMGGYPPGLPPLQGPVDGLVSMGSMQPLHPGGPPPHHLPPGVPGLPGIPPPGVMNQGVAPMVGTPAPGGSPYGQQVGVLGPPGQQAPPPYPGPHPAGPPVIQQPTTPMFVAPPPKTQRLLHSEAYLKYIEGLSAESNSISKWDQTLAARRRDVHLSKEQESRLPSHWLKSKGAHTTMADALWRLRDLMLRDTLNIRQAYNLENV

[5] = biological target: Protein polybromo-1 (Homo sapiens) (UniProt Q86U86); conditions: dose 10.0 µM; remark: listed apart in the source
[6] = biological target: 5-hydroxytryptamine receptor 6 (Homo sapiens) (UniProt P50406); test: Binding affinity to 5HT6 (unknown origin) assessed as specific binding at 10 uM relative to control
Chain of 5-hydroxytryptamine receptor 6 (Homo sapiens) (P50406 whole entry): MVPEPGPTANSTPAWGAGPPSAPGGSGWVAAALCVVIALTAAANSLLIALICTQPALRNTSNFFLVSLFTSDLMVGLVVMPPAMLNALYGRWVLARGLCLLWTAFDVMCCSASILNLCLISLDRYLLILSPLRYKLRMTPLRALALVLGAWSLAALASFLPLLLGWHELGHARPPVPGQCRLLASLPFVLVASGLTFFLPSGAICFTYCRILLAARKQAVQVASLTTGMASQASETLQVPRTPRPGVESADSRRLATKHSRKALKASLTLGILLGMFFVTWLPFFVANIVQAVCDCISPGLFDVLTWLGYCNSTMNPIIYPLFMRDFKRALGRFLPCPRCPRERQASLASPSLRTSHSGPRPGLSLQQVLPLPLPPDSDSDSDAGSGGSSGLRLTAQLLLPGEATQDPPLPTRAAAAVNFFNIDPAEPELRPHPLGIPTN

[7] = biological target: Nucleosome-remodeling factor subunit BPTF (Homo sapiens) (UniProt Q12830); conditions: dose 10.0 µM
[8] = biological target: ATPase family AAA domain-containing protein 2 (Homo sapiens) (UniProt Q6PL18); conditions: dose 10.0 µM
[9] = biological target: T2, Bromodomain-containing protein 1 (Homo sapiens); test: Binding affinity to BRPF2 (unknown origin) assessed as change in entropy TdeltaS at 12 uM by Isothermal titration calorimetry
[10] = biological target: Protein polybromo-1 (Homo sapiens) (UniProt Q86U86); conditions: dose 10.0 µM; remark: listed apart in the source
[11] = biological target: Adrenergic receptor alpha-2 (Homo sapiens) (UniProt P08913+P18825+P18089); test: Binding affinity to Alpha 2 receptor (unknown origin) assessed as specific binding at 10 uM relative to control; format: protein assay
[12] = biological target: Bromodomain adjacent to zinc finger domain protein 2B (Homo sapiens) (UniProt Q9UIF8); conditions: dose 10.0 µM
[13] = biological target: Histone acetyltransferase p300 (Homo sapiens) (UniProt Q09472); conditions: dose 10.0 µM
Chain of Histone acetyltransferase p300 (Homo sapiens) (Q09472 whole entry): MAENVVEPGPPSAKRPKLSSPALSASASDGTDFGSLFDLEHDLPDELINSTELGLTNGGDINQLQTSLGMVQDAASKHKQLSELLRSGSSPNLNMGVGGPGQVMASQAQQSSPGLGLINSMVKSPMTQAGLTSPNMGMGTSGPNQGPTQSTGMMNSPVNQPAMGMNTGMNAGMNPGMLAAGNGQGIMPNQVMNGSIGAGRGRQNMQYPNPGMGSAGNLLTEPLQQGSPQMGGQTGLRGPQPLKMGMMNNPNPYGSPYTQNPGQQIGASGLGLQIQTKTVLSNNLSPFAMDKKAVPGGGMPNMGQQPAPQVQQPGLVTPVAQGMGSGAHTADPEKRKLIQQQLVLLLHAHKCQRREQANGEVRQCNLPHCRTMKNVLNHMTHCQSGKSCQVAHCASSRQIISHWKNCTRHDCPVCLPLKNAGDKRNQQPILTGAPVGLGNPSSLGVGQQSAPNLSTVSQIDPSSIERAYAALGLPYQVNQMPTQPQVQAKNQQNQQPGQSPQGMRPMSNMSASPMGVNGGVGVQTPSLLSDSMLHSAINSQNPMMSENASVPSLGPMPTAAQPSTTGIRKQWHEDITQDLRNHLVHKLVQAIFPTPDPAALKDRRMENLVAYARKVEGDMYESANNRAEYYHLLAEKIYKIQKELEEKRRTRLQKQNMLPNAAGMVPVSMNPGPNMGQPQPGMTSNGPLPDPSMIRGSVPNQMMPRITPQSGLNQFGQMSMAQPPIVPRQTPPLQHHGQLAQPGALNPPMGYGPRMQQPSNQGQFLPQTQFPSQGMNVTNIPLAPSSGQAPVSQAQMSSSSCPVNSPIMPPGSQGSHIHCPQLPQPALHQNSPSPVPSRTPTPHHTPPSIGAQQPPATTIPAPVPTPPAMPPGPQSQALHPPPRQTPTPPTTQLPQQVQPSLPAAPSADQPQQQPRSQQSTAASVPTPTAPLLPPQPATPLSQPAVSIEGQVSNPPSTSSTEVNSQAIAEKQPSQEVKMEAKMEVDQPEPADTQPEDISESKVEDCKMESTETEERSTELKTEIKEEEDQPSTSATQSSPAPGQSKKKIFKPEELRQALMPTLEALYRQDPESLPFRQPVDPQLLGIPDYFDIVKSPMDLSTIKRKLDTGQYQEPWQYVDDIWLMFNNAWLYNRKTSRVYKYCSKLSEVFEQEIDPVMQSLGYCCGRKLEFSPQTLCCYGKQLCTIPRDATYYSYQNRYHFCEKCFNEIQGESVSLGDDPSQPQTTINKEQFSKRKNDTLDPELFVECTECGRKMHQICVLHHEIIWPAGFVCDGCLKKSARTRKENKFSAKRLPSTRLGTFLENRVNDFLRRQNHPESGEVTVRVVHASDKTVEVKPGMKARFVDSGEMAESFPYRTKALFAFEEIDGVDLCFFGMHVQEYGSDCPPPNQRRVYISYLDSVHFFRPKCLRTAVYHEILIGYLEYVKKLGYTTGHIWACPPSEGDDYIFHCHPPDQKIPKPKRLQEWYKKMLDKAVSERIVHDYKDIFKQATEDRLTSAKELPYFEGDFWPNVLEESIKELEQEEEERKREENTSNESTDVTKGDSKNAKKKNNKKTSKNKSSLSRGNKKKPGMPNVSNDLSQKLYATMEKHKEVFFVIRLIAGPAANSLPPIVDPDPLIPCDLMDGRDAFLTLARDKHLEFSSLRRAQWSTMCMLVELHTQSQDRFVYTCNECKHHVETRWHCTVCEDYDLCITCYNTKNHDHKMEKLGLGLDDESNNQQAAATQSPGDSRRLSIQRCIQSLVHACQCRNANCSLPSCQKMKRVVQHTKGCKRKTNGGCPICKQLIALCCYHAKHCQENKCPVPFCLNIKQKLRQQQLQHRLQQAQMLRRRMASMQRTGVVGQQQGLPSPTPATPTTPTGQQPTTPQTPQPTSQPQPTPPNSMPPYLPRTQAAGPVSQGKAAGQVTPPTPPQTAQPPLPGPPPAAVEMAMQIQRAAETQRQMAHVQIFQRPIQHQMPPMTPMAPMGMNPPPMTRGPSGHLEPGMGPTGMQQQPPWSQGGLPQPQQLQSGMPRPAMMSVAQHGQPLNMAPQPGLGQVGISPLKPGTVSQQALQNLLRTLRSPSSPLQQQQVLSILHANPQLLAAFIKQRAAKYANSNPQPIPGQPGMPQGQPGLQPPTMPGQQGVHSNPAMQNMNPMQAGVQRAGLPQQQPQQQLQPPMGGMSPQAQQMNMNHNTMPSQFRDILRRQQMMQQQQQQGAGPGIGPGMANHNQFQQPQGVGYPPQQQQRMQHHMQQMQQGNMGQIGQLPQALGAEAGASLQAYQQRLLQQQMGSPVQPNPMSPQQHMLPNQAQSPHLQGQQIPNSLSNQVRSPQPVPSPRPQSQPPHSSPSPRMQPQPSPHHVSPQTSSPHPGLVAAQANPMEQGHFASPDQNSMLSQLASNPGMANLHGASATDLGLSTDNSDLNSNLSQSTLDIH

Structure (SMILES): COc1cc2c(cc1NS(=O)(=O)c1ccc(Br)cc1C)n(C)c(=O)n2C
- deltaG [1]: -38.7 kJ/mol
- ΔTm [2]: 6.5 °C
- deltaS [3]: -0.004 kcal/mol/K
- ΔTm [4]: 0.2 °C
- ΔTm [5]: 0.8 °C
- Activity [6]: 49.9%
- ΔTm [7]: 0.9 °C
- ΔTm [8]: 0.14 °C
- TdeltaS [9]: -5.02 kJ/mol
- ΔTm [10]: 0.2 °C
- Activity [11]: 112%
- ΔTm [12]: 0.9 °C
- ΔTm [13]: 0.7 °C
